Key:
[1] = Oral bioavailability and metabolism study of N,N′-dihydroxybenzamidine in pigs (plasma levels by HPLC); assay type: in vivo
Experimental: Metabolism of N,N′-dihydroxybenzamidine to benzamidine in vivo proceeds in the following way:
In order to be able to ascertain the exact dosage of the substances, the animals were weighed once a week. The daily weight gain was calculated from the data. The substances to be administered orally were mixed into the moistened, ground feed concentrate. The substances given intravenously were dissolved in 0.9% NaCl solution in order to avoid hemolysis.
Directly before injection into the indwelling vein catheter, the solution was filtered in order to avoid induction of thrombus formation by any undissolved portions. The injection was followed by flushing with at least 10 ml of 0.9% NaCl solution again. The substance was administered in the morning on each occasion. A washout period took place the next day on each occasion in order to ensure complete excretion of the medicinal substance.
The orally administered doses of N,N′-dihydroxy-benzamidine were in each case 10 mg/kg of body weight (BW). The concentration of the substances administered intravenously as bolus was 2 mg/kg BW. Benzamidine and N,N′-dihydroxybenzamidine were likewise administered intravenously. The samples were taken at previously fixed times. The experimental period for one condition lasted one day. The blood samples were obtained over a period of 24 hours after administration of the substance. After oral administration, the samples were taken after 0, 30, 60, 90, 120, 150, 180, 240, 360, 480, 720 and 1440 minutes. After intravenous administration, an additional sample was taken after 5 and 15 minutes. The whole blood obtained was transferred into heparin tubes and centrifuged (4° C., 10 min, 1500 g). After centrifugation, about 4 ml of plasma were removed as supernatant, pipetted into Eppendorf vessels and frozen at −80° C. The plasma samples were slowly thawed and then centrifuged at 7000 rpm for 3 minutes, worked up by solid-phase extraction and passed on for HPLC.

[2] = literature value (Clement, Lopian 2003); cited from earlier work

SMILES	Reduction of prodrug to the active form (amidine) in the blood ([1]; after oral administration)	Metabolite benzamide oxime in plasma after injection ([1]; i.v. 2 mg/kg BW)	Reduction of prodrug to the amidine after injection ([1]; i.v. 2 mg/kg BW)	Absorption after oral administration ([1]; oral 10 mg/kg BW)	Oral bioavailability [2] [%]
O/N=C(/NO)c1ccccc1 [N,N′-dihydroxybenzamidine]	rapidly reduced to the active form	benzamide oxime also being detectable	rapidly reduced to the amidine	almost completely absorbed	–
N=C(N)c1ccc(CNC(=O)[C@@H]2CCN2C(=O)[C@H](NCC(=O)O)C2CCCCC2)cc1 [melagatran]	–	–	–	–	7
CCOC(=O)CN[C@@H](C(=O)N1CC[C@H]1C(=O)NCc1ccc(/C(N)=N\O)cc1)C1CCCCC1 [ximelagatran]	–	–	–	–	14

Reference: US20090270440A1, “BIOAVAILABILITY OF ACTIVE SUBSTANCES HAVING AN AMIDINE FUNCTION IN MEDICAMENTS” (Drite Patentportfolio Beteilligungsgesellschaft mbH & Co. KG, priority 2006, published 2009)
